{
  "source": "patent US11400019B2",
  "about": "“Sustained release drug delivery systems with reduced impurities and related methods” (DURECT CORPORATION, priority 2020, dated 2022)",
  "format_in_all_cases": "physicochemical",
  "key": {"[1]": {"assay": "2,6-dimethylaniline standard in clear, amber and red glassware, HPLC with electrochemical detection", "experimental": "A series of experiments was conducted examining the effects of amber and red colored glassware on the stability of the 2,6-dimethylaniline reference standard, using electrochemical detection, at a concentration of 3 ng/mL in an aqueous buffer/methanol solution.\nIn Experiment 1, the 2,6-dimethylaniline was prepared at a concentration of 3 ng/mL in a clear, colorless glass 100 mL volumetric flask. Aliquots were transferred into clear HPLC glass vials, and assayed against external standards. The 3 injections of the 2,6-dimethylaniline were consistently near 3 ng/mL.\nIn Experiment 2, the 2,6-dimethylaniline solution at 3 ng/mL prepared in a clear, colorless glass 100 mL volumetric flask was transferred to amber HPLC vials.\nAn aliquot was transferred into a clear HPLC glass vial, and assayed against external standards. The sample injection had the same 2,6-dimethylaniline concentration value as that in Experiment 1.\nIn Experiment 4, the 2,6-dimethylaniline solution at 3 ng/mL prepared in the red colored glass 100 mL volumetric flask coated with RAY-SORB® was transferred to an amber HPLC vial."}, "[2]": {"assay": "Peroxide content of SAIB and benzyl alcohol versus bupivacaine N-oxide", "experimental": "The peroxide content for several lots of sucrose acetate isobutyrate were determined by potentiometric titration involving iodometric titration. The bupivacaine N-oxide levels in samples of Formulation A were determined using HPLC with UV detection.\nThe bupivacaine N-oxide data in Table 10.1 are for the longest available stability time points for each set of samples.\nAll of the benzyl alcohol compositions had peroxide values of less than […]. The peroxide value can be converted to peroxide content, expressed as hydrogen peroxide, by multiplying PV by 17. […] The maximum contribution to peroxide content from benzyl alcohol is 85 ppm divided by 3, or 28 ppm."}, "[3]": {"assay": "In vitro cumulative release of bupivacaine, USP Apparatus II dissolution, f1/f2 comparison", "conditions": "pre-heated in oven at 225° C. for 4 hours", "experimental": "The in vitro cumulative release of bupivacaine from formulations was determined as follows.\nThe bupivacaine formulations, other than the heat-stressed formulation, were prepared by dissolving appropriate amounts of bupivacaine in appropriate amounts of benzyl alcohol (BA), adding an appropriate amount of sucrose acetate isobutyrate (SAIB), and stirring not less than 45 minutes at about 35° C. For the heat-stressed SAIB formulation, the same process was followed except the SAIB was pre-heated in an oven at 225° C. for 4 hours before use. A portion of the pre-heated SAIB was tested and found to have 98% SAIB remaining.\nDissolution was measured using a USP Apparatus II. Approximately 0.5 mL of each formulation was loaded via cannula and syringed into 900 mL±5 mL of 37±0.5° C. dissolution media (phosphate buffer at pH 7.4±0.05 with 0.03% sodium lauryl sulfate). The USP Apparatus II was set at 50 RPM, and samples were collected at 1, 4, 8, 12, 18, 24, 36, 48, and 72 hours. The number of replicates (N) per sample per time point varied as described above. The collected samples were assayed for bupivacaine content by HPLC.\nThe dissolution profile comparisons were conducted using a difference factor (f1) and a similarity factor (f2) approach (FDA Guidance for Industry “Dissolution Testing of Immediate Release Solid Oral Dosage Forms” August 1997). […]"}, "[4]": {"assay": "Metal content by ICP-MS", "experimental": "Sucrose acetate isobutyrate was tested for metal content as follows. The sample was prepared with a 0.1 g weighed portion mixed with 2 mL nitric acid and 0.5 mL hydrochloric acid for 1 hour on a block digester set at 110° C. After cooling, 0.5 mL of 30% hydrogen peroxide was added, and the digestion resumed for 30 minutes (the material appeared dissolved). After cooling, internal standard solution was added and dilution with purified water to 20 g produced a solution for ICP-MS analysis.\nFormulation A was compounded using steel compounding tanks. Silicone tubing was used to transfer Formulation A. Formulation A was filled into glass vials, which were then sealed with fluorocarbon-coated stoppers.\nFormulation A was tested for metal content as follows. The sample was prepared with a 0.2 g weighed portion mixed with 2 mL nitric acid, 1 mL hydrochloric acid, and 1 mL hydrofluoric acid, then digested in a closed-vessel microwave system (the material appeared dissolved). After cooling, internal standard solution was added and dilution with purified water to 50 g produced a solution for ICP-MS analysis."}},
  "note": "Where “and” joins values, the source holds several entries; their conditions need not be identical. Equal entries are not always repeated.",
  "data": [
    {"compound": "Cc1cccc(C)c1N", "note": "[2,6-dimethylaniline]", "values": [
      {"measurement": "Observed Concentration of Standard", "setting": "[1]; Experiment 1: clear flask, clear HPLC vial, nominal 3 ng/mL", "value": "~3", "unit": "ng/mL"},
      {"measurement": "Observed Concentration of Standard", "setting": "[1]; Experiment 1: clear flask, clear HPLC vial, nominal 3 ng/mL, listed as 2,6-Dimethlylaniline Standard", "value": "3.0 ng/mL and 3.1 ng/mL"},
      {"measurement": "Observed Concentration of Standard", "setting": "[1]; Experiment 2: clear flask, amber HPLC vial, listed as 2,6-Dimethlylaniline Standard", "value": "24.5 ng/mL and 28.4 ng/mL and 34.6 ng/mL and 38.1 ng/mL"},
      {"measurement": "Observed Concentration of Standard", "setting": "[1]; Experiment 3: red RAY-SORB flask, clear HPLC vial", "value": 3.0, "unit": "ng/mL"},
      {"measurement": "2,6-dimethylaniline content, times higher than Experiments 1 and 3", "setting": "[1]; Experiment 4, amber HPLC vial", "value": "approximately 5 times"},
      {"measurement": "Observed Concentration of Standard", "setting": "[1]; Experiment 4: red flask, amber HPLC vial", "value": 14.9, "unit": "ng/mL"}
    ]},
    {"compound": "OCc1ccccc1", "note": "[benzyl alcohol]", "values": [
      {"measurement": "effective peroxide contribution to formation of bupivacaine N-oxide", "setting": "[2]; 8.5 ppm divided by 3", "value": "< 2.8", "unit": "ppm"},
      {"measurement": "peroxide content, expressed as hydrogen peroxide", "setting": "[2]; PV multiplied by 17", "value": "< 8.5", "unit": "ppm"},
      {"measurement": "peroxide value (PV)", "setting": "[2]; all lots used for Formulation A samples", "value": "less than 0.5"}
    ]},
    {"compound": "sucrose acetate isobutyrate [SAIB]", "values": [
      {"measurement": "SAIB remaining", "setting": "[3]", "value": 98, "unit": "%"},
      {"measurement": "Gold content", "setting": "[4]; detection limit 0.02", "value": 0.4, "unit": "ppm"},
      {"measurement": "Tin content", "setting": "[4]; detection limit 0.04", "value": 0.06, "unit": "ppm"},
      {"measurement": "Iron content", "setting": "[4]; detection limit 1", "value": 2, "unit": "ppm"},
      {"measurement": "peroxide in SAIB corresponding to 0.8% bupivacaine N-oxide", "setting": "[2]; linear regression, FIG. 2", "value": 232.5, "unit": "ppm"},
      {"measurement": "peroxide in SAIB corresponding to 1.0% bupivacaine N-oxide", "setting": "[2]; linear regression, FIG. 2", "value": 296.4, "unit": "ppm"}
    ]}
  ]
}
